Results from patent US20130324533A1, “METHOD OF DETECTING RESISTANCE TO CANCER THERAPY” (NATIONAL UNIVERSITY OF SINGAPORE, priority 2010, published 2013).
Read-outs that look alike come from different tables or passages of the source.

Legend:
[1] = tested on: K562-BIM^intron+/− and K562-BIM^intron−/− cells; assay: Western blot of genome-edited K562 clones (BIMEL, cleaved caspase 3, PARP); type: cell-based, human; conditions: polymorphism-containing K562 cells; FIG. 16H
Description: Western blots were probed with antibody to BIMEL, cleaved caspase 3, PAR P, CrkL, and β-actin. […] Detection was performed with HRP-conjugated secondary antibodies that are specific to rabbit (Sigma) or mouse IgG (Santa Cruz). The membrane was visualized using the Western Lightning chemiluminescence reagent (PerkinElmer). […] In a 6-well plate, 1×10^6 cells were seeded into each well at a density of 2×10^5 cells/ml. After incubation with the appropriate drug for 48 hours, the cells were harvested for western analysis (FIG. 16).

HCC2279 cells [2] = assay: Western blot of apoptotic signaling in NSCLC cells (PARP, caspase 3 cleavage); type: cell-based, human; conditions: 0.5 μM gefitinib, […] ABT-737, 24 h, FIG. 25E
Description: FIG. 25E. Western blot showing levels of phospho-EGFR (p-EGFR), PAR P, and caspase 3 cleavage in cells treated for 24 h with 0.5 μM gefitinib, 2.5 μM ABT-737, or both.
Gefitinib and ABT-737 were resuspended in DMSO and kept at −20° C.
Western blotting was performed using antibodies against human BIM, CASPASE 3, cleaved CASPASE 3, PARP, phospho-EGFR (Y1068) (all from Cell Signaling Technology), and β-actin (Sigma).

HCC2279 cells [3] = assay: Trypan blue viability assay in NSCLC cells; type: cell-based, human
Description: FIG. 25F. Cell viability of PC9 and HCC2279 treated for 48 h with 0.5 μM gefitinib, 2.5 μM ABT-737, or both. Cell viability was determined by trypan blue exclusion, and plotted as a percentage of the no-drug control. (mean+/−standard error of the mean, *p=0.00004 with respect to gefitinib- and ABT-737-treated PC9 cells).
PC9 or HCC2279 cells were seeded in a 24-well plate at 5×10^5 or […] cells per wells in triplicate, and treated with DMSO (no drug), 0.5 μM gefitinib, ABT-737 or combination of gefitinib and ABT-737. Trypan blue staining was performed to assess the number of viable cells 48 hours post treatment.

KCL22 cells [4] = conditions: FIG. 15H and Table H13
Description: Apoptosis was measured using the Annexin V-FITC/7-AAD kit (Beckman Coulter) according to the manufacturer's instructions. Briefly, treated and untreated cells were Annexin V-FITC- and 7-AAD-stained in 1× binding buffer for 15 min at room temperature and then analyzed by flow cytometry.

CML patients = conditions: cited from earlier work
KCL22 cells [5] = assay: Growth curve of CML cell lines cultured with imatinib (FIG. 5F); conditions: KCL22 cells with deletion, 1 μM imatinib
Description: CML lines were obtained from ATCC (MEG-01 and KU812), JCRB (NCO2) and DSMZ (KCL22, K562, KYO1, JK1, BV173 and NALM1).

Structure (SMILES): CN(C)CC[C@H](CSc1ccccc1)Nc1ccc(S(=O)(=O)NC(=O)c2ccc(N3CCN(Cc4ccccc4-c4ccc(Cl)cc4)CC3)cc2)cc1[N+](=O)[O-] [ABT-737]
- ability of imatinib to activate apoptosis on addition of ABT-737 [1]: enhanced
- TKI-induced apoptotic signaling on addition of ABT-737 (HCC2279 cells [2]): enhanced
- TKI-induced cell death on addition of ABT-737 (HCC2279 cells [3]; HCC2279, 0.5 μM gefitinib, […] ABT-737, 48 h, FIG. 25F): enhanced

Structure (SMILES): COc1cc2ncnc(Nc3ccc(F)c(Cl)c3)c2cc1OCCCN1CCOCC1 [gefitinib]
- sensitivity of HCC2279 to gefitinib (HCC2279 cells [3]; HCC2279, NSCLC cell line carrying the BIM deletion polymorphism, FIG. 25): intrinsically resistant

Structure (SMILES): Cc1ccc(NC(=O)c2ccc(CN3CCN(C)CC3)cc2)cc1Nc1nccc(-c2cccnc2)n1 [imatinib]
- sensitivity of KCL22 cells to imatinib (KCL22 cells [4]): resistant
- rate of incomplete cytogenetic responses (CML patients; East-Asian countries): ~50%
- rate of incomplete cytogenetic responses (CML patients; Europe and North America): 26%
- sensitivity of KCL22 cells (growth curve) (KCL22 cells [5]): resistant
